Experimental data taken from US8431593B2, “Heteroaryl amide derivatives” (H. Lundbeck A/S, priority 2006, dated 2013).

Target: T1, P2X7 receptor (Homo sapiens, UniProt Q99572)
T1 construct: host or cells: SH-SY5Y
T1 sequence (Q99572 1-595): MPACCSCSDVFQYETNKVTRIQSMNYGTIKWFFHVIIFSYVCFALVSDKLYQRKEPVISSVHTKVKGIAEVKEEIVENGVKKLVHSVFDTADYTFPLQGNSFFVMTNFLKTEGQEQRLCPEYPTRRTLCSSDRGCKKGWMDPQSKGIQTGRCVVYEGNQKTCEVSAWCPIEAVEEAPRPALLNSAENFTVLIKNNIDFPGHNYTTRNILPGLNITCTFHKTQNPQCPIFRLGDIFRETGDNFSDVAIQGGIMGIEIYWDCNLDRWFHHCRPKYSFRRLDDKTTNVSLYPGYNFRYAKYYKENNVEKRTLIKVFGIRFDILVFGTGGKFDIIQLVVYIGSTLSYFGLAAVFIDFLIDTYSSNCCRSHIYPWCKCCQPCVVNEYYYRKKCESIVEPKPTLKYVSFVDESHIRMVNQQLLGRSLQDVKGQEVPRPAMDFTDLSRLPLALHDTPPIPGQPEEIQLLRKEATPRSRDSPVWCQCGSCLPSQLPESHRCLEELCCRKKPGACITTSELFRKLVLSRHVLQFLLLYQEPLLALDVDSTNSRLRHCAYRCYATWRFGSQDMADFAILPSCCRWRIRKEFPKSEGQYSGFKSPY
Assay: P2X7 calcium mobilization assay, high throughput, antagonist activity (Example 4A)
Assay type: cell-based
Details: 50% decrease in the fluorescence response of cells exposed to 80 μM of 2′(3′)-O-(4-benzoyl-benzoyl)adenosine 5′-triphosphate; Example 4A; read-out: IC50
Summary of the method: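 Antagonism was measured as calcium mobilization on FLIPR^TETRA after a 1 h room-temperature compound preincubation of dye-loaded cells. Baseline from no-agonist wells was subtracted from each well's maximum RFU.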

IC50, < 2000 nM:
CC(C)CC(CNC(=O)c1cccc2nc(C(=O)N3CC[C@@H](N)C3)cn12)c1cccnc1 (stereo partly shown) [Compound 746, 2-[(3-aminopyrrolidin-1-yl)carbonyl]-N-(4-methyl-2-pyridin-3-ylpentyl) imidazo[1,2-a]pyridine-5-carboxamide]
O=C(NCC12CC3CC(CC(C3)C1)C2)c1cccc2nc(C(=O)N3CC[C@@H](NCCO)C3)cn12 [Compound 747, N-(adamantan-1-ylmethyl)-2-({3-[(2-hydroxyethyl)amino]pyrrolidin-1-yl}carbonyl)imidazo[1,2-a]pyridine-5-carboxamide]
CC(CC#N)c1cn2c(C(=O)NCC34CC5CC(CC(C5)C3)C4)cccc2n1 (stereo not shown) [Compound 748, N-(adamantan-1-ylmethyl)-2-(2-cyano-1-methylethyl) imidazo[1,2-a]pyridine-5-carboxamide]
CC(C(=O)N1CCC[C@@H](N)C1)c1cn2c(C(=O)NCC34CC5CC(CC(C5)C3)C4)cccc2n1 (stereo partly shown) [Compound 751, N-(adamantan-1-ylmethyl)-2-[2-(3-aminopiperidin-1-yl)-1-methyl-2-oxoethyl]imidazo [1,2-a]pyridine-5-carboxamide]
CC(C(=O)N1CC[C@@H](N)C1)c1cn2c(C(=O)NCC34CC5CC(CC(C5)C3)C4)cccc2n1 (stereo partly shown) [Compound 752, N-(adamantan-1-ylmethyl)-2-[2-(3-aminopyrrolidin-1-yl)-1-methyl-2-oxoethyl]imidazo [1,2-a]pyridine-5-carboxamide]
CN(C)[C@@H]1CCN(C(=O)CCc2cn3c(C(=O)NCC45CC6CC(CC(C6)C4)C5)cccc3n2)C1 [Compound 753, N-(adamantan-1-ylmethyl)-2-{3-[(3R)-3-(dimethylamino)pyrrolidin-1-yl]-3-oxopropyl}imidazo [1,2-a)pyridine-5-carboxamide]
CN(C)C1CCCN(C(=O)CCc2cn3c(C(=O)NCC45CC6CC(CC(C6)C4)C5)cccc3n2)C1 (stereo not shown) [Compound 754, N-(adamantan-1-ylmethyl)-2-{3-[3-(dimethylamino)piperidin-1-yl]-3-oxopropyl} imidazo[1,2-a] pyridine-5-carboxamide]
O=C(NCC12CC3CC(CC(C3)C1)C2)c1cccc2nc(C(Cc3ccccc3)C(=O)O)cn12 (stereo not shown) [Compound 755, 2-{5-[(adamantan-1-ylmethyl)carbamoyl]imidazo[1,2-a]pyridin-2-yl}-3-phenylpropanoic acid]
CCOC(=O)CCc1cn2c(C(=O)NCC34CC5CC(CC(C5)C3)C4)cccc2n1 [Compound 756, ethyl 3-{5-[(adamantan-1-ylmethyl)carbamoyl]imidazo[1,2-a]pyridin-2-yl}propanoate]
CC(C)NCCSCc1cn2c(C(=O)NCC34CC5CC(CC(C5)C3)C4)cccc2n1 [Compound 757, N-(adamantan-1-ylmethyl)-2-({[2-(isopropylamino)ethyl]thio}methyl) imidazo[1,2-a] pyridine-5-carboxamide]
COC(=O)C(Cc1cn2c(C(=O)NCC34CC5CC(CC(C5)C3)C4)cccc2n1)c1ccccn1 (stereo not shown) [Compound 758, methyl 3-{5-[(adamantan-1-ylmethyl)carbamoyl]imidazo[1,2-a]pyridin-2-yl}-2-pyridin-2-ylpropanoate]
CCOC(=O)C(Cc1cn2c(C(=O)NCC34CC5CC(CC(C5)C3)C4)cccc2n1)c1cccnc1 (stereo not shown) [Compound 759, ethyl 3-{5-[(adamantan-1-ylmethyl)carbamoyl]imidazo[1,2-a]pyridin-2-yl}-2-pyridin-3-ylpropanoate]
Cc1ccc(C(CNC(=O)c2cccc3nc(CN4CC[C@@H](N)C4)cn23)CC(C)C)cc1 (stereo partly shown) [Compound 760, 2-[(3-aminopyrrolidin-1-yl)methyl]-N-[4-methyl-2-(4-methylphenyl)pentyl] imidazo[1,2-a] pyridine-5-carboxamide]
CC(C#N)c1cn2c(C(=O)NCC34CC5CC(CC(C5)C3)C4)cccc2n1 (stereo not shown) [Compound 761, N-(adamantan-1-ylmethyl)-2-(1-cyanoethyl)imidazo [1,2-a]pyridine-5-carboxamide]
CC(C)CC(CNC(=O)c1cccc2nc(CN3CC[C@@H](N)C3)cn12)c1ccc(Cl)cc1 (stereo partly shown) [Compound 762, 2-[(3-aminopyrrolidin-1-yl)methyl]-N-[2-(4-chlorophenyl)-4-methylpentyl] imidazo [1,2-a]pyridine-5-carboxamide]
CC(C)CC(CNC(=O)c1cccc2nc(CN3CC[C@@H](NC(=O)OC(C)(C)C)C3)cn12)c1ccc(C(F)(F)F)cc1 (stereo partly shown) [Compound 764, tert-butyl (1-{[5-({4-methyl-2-[4-(trifluoromethyl)phenyl]pentyl}carbamoyl)imidazo [1,2-a]pyridin-2-yl]methyl}pyrrolidin-3-yl)carbamate]
Cc1ccc(C(CNC(=O)c2cccc3nc(CN4CC[C@@H](NC(=O)OC(C)(C)C)C4)cn23)CC(C)C)cc1 (stereo partly shown) [Compound 765, tert-butyl {1-[(5-{[4-methyl-2-(4-methylphenyl)pentyl]carbamoyl}imidazo [1,2-a]pyridin-2-yl)methyl]pyrrolidin-3-yl}carbamate]
CC(C)CC(CNC(=O)c1cccc2nc(CN3CC[C@@H](NC(=O)OC(C)(C)C)C3)cn12)c1ccc(Cl)cc1 (stereo partly shown) [Compound 766, tert-butyl{1-[(5-{[2-(4-chlorophenyl)-4-methylpentyl]carbamoyl}imidazo[1,2-a]pyridin-2-yl)methyl]pyrrolidin-3-yl}carbamate]
CN(C(=O)Cc1cn2c(C(=O)NCC34CC5CC(CC(C5)C3)C4)cccc2n1)C1CCOCC1 [Compound 767, N-(adamantan-1-ylmethyl)-2-{2-[methyl(tetrahydro-2H-pyran-4-yl)amino]-2-oxoethyl} imidazo[1,2-a] pyridine-5-carboxamide]
N[C@@H]1CCN(Cc2cn3c(C(=O)NCC4(c5cccnc5)CCCCC4)cccc3n2)C1 [Compound 769, 2-[(3-aminopyrrolidin-1-yl)methyl]-N-[(1-pyridin-3-ylcyclohexyl)methyl] imidazo[1,2-a] pyridine-5-carboxamide]
CC(c1cn2c(C(=O)NCC34CC5CC(CC(C5)C3)C4)cccc2n1)c1nnn[nH]1 (stereo not shown) [Compound 770, N-(adamantan-1-ylmethyl)-2-[1-(1H-tetrazol-5-yl)ethyl]imidazo [1,2-a]pyridine-5-carboxamide]
N[C@@H]1CCCN(C(=O)Cc2cn3c(NC(=O)CC45CC6CC(CC(C6)C4)C5)cccc3n2)C1 [Compound 771, 2-adamantan-1-yl-N-(2-{2-[(3R)-3-aminopiperidin-1-yl]-2-oxoethyl}imidazo[1,2-a]pyridin-5-yl)acetamide]
Cc1cnc(N(C)Cc2cn3c(C(=O)NCC45CC6CC(CC(C6)C4)C5)cccc3n2)nc1N [Compound 772, N-(adamantan-1-ylmethyl)-2-{[(4-amino-5-methylpyrimidin-2-yl)(methyl)amino]methyl}imidazo [1,2-a]pyridine-5-carboxamide]
CN(Cc1cn2c(C(=O)NCC34CC5CC(CC(C5)C3)C4)cccc2n1)c1ncccc1C(=O)O [Compound 774, 2-[({5-[(adamantan-1-ylmethyl)carbamoyl]imidazo[1,2-a]pyridin-2-yl}methyl) (methyl)amino] nicotinic acid]
N[C@@H]1CCN(C(=O)CCc2cn3c(C(=O)NCC45CC6CC(CC(C6)C4)C5)cccc3n2)C1 [Compound 778, N-(adamantan-1-ylmethyl)-2-{3-[(3R)-3-aminopyrrolidin-1-yl]-3-oxopropyl} imidazo[1,2-a] pyridine-5-carboxamide]
CNC1CCN(C(=O)CCc2cn3c(C(=O)NCC45CC6CC(CC(C6)C4)C5)cccc3n2)C1 (stereo not shown) [Compound 779, N-(adamantan-1-ylmethyl)-2-{3-[3-(methylamino)pyrrolidin-1-yl]-3-oxopropyl} imidazo[1,2-a] pyridine-5-carboxamide]
NC1CCCN(C(=O)CCc2cn3c(C(=O)NCC45CC6CC(CC(C6)C4)C5)cccc3n2)C1 (stereo not shown) [Compound 780, N-(adamantan-1-ylmethyl)-2-[3-(3-aminopiperidin-1-yl)-3-oxopropyl] imidazo[1,2-a] pyridine-5-carboxamide]
CC(Cc1nnn[nH]1)c1cn2c(C(=O)NCC34CC5CC(CC(C5)C3)C4)cccc2n1 (stereo not shown) [Compound 781, N-(adamantan-1-ylmethyl)-2-[1-methyl-2-(1H-tetrazol-5-yl)ethyl] imidazo[1,2-a] pyridine-5-carboxamide]
